Laboratory results taken from patent US10398725B2, “Ophthalmic compositions and methods of use” (Veloce BioPharma, LLC, priority 2015, dated 2019).

Tests used:
Assay type in all cases: in vivo, human
[1] = system: rosacea blepharoconjunctivitis; test: Example 3B: person with rosacea blepharoconjunctivitis; details: before the PVP-I/DMSO gel
Text: B. Rosacea Blepahritis; Treated with 1% PVP-I in 44% USP Grade DMSO with 4% Hydroxyethylcellulose in Water
A person with a past ocular history of glaucoma and pseudophakia presented with long standing ocular dryness, grittiness, periocular erythema and eyelid crusting. On facial inspection, nasal and facial telangiectasia with flushing were evident. Their topical medical regimen included Latanoprost 1 drop QHS OU, Brimonidine 1 drop BID OU, and Dorzolamide/Timolol 1 drop BID OU. The patient endorsed utilization of a variety of medicines and treatments to abate this condition, however, they were of little benefit. Failed therapies included topical steroids, antibiotics including azithromycin, combination medicines, and cyclosporine. Oral medicines including doxycycline and DHA/ALA/EPA were also ineffective.
Further towards the posterior tarsal area, dilated, engorged telangiectatic vessels were present. […] A diagnosis of rosacea blepharoconjunctivitis was made.
The patient was given a topical gel of 1% PVP-I in a dimethylsulfoxide (DMSO) vehicle that was prepared from a licensed compounding pharmacy. The treatment was administered twice daily and delivered by rubbing the gel onto the lash line and eyelid. […] Most prominently, much of the conjunctivitis, anterior lid erythema and thickening had reversed. […]

[2] = system: Acanthamoeba corneal ulceration; test: Example 16: patient with Acanthamoeba corneal ulceration; details: before the PVP-I/DMSO composition
Text: Acanthamoeba Corneal Ulceration; Treated with Aqueous 0.4% PVP-I in 39% USP Grade DMSO with Hydroxyethyl Cellulose
This patient was suffering from an Acanthamoeba corneal ulceration. In this type of infection there is often a history of contact lens use and home-made contact lens solutions, however, this is not a prerequisite. Acanthamoeba parasites are often introduced into the eye through a small break in the epithelium and gains foothold to the underlying structures. The patient endorses pain out of proportion with examination. […] The cornea contained multiple bullous lesions with enlarged corneal nerves. There was an overlying epithelial defect and faint ring-shaped infiltrate. The infiltrate had induced minimal stromalysis and the resultant cornea was not thinned. There was no hypopyon, however, cell and flare were present. Corneal cultures were taken, and Acanthamoeba species were identified on non-nutrient agar with E. coli overlay. […] Prepared was a composition as disclosed herein using 0.4% PVP-I in 39% DMSO with hydroxyethyl cellulose. The patient was treated by applying the solution topically to the eye six times daily. […] The corneal had begun the process of re-epithelialization and the ring ulcer began to lessen in intensity. […] A central corneal cicatrix was evident in the area of previous active infiltrate.

[3] = system: eyelid associated molluscum contagiosum; test: Example 21: patient with eyelid molluscum contagiosum; details: before the PVP-I/DMSO composition
Experimental: Eyelid Molluscum Contagiosum; Treated with 9% PVP-I in 39% USP Grade DMSO with 3% Hydroxyethylcellulose
This patient was suffering from an eyelid associated molluscum contagiosum. […] The process is often associated with pox virus infection of the epithelial layers. […] Cryotherapy with excision was eventually performed, however, the lesions recurred. Prepared was a composition as disclosed herein using 0.9% PVP-I in 39% DMSO with hydroxyethyl cellulose. The patient was treated by applying the solution topically to the eyelid and margin structures four times daily. […] The lesions had begun to involute and diminish in surface area.

| Structure (SMILES) | outcome of earlier therapies (patient history) [2] | outcome of earlier therapies (patient history) [3] | other results |
| --- | --- | --- | --- |
| CC[C@H]1OC(=O)[C@H](C)[C@@H](O[C@H]2C[C@@](C)(OC)[C@@H](O)[C@H](C)O2)[C@H](C)[C@@H](O[C@@H]2O[C@H](C)C[C@H](N(C)C)[C@H]2O)[C@](C)(O)C[C@@H](C)CN(C)[C@H](C)[C@@H](O)[C@]1(C)O [azithromycin] | – | – | outcome of earlier therapies (patient history) [1]: Failed |
| [H]/N=C(\N/C(=N/[H])NCCCCCCNC(=N)NC(=N)Nc1ccc(Cl)cc1)Nc1ccc(Cl)cc1 [chlorhexidine] | without benefit | – | – |
| CC(C)Cn1cnc2c(N)nc3ccccc3c21 [imiquimod] | – | without benefit | – |
| N=C(N)c1ccc(OCCCOc2ccc(C(=N)N)cc2)cc1 [propamidine] | without benefit | – | – |
| O=C(O)c1ccccc1O [salicylic acid] | – | without benefit | – |
